Data reported in ChEMBL document CHEMBL5233288, “Ginkgo Biflavones Cause p53 Wild-Type Dependent Cell Death in a Transcription-Independent Manner of p53” (J Nat Prod, 2023).
Active and inactive are the calls of the source. The rule behind the calls is not given here.

What was measured:
[1] = tested on: HCT-116; assay: Upregulation of p53 protein expression in human HCT-116 cells expressing wild type p53 at 20 uM incubated for 24 hrs by western blot analysis; assay type: functional, cell-based
[2] = tested on: HCT-116; assay: Upregulation of p53 protein expression in human HCT-116 cells expressing wild type p53 incubated for 24 hrs by western blot analysis; assay type: functional, cell-based; details: dose 2.5-20 µM
[3] = tested on: HCT-116; assay: Upregulation of p53 protein expression in human HCT-116 cells expressing wild type p53 at 20 uM by western blot analysis; assay type: functional, cell-based; details: time 0.5-16 hrs, TDE = time-dependent effect
[4] = tested on: HT-29; assay: Cytotoxicity against human HT-29 cells expressing p53 mutant assessed as induction of cell death at 20 uM incubated for 72 hrs by resazurin based analysis; assay type: functional
[5] = tested on: SW-620; assay: Cytotoxicity against human SW620 cells expressing p53 mutant assessed as induction of cell death at 20 uM incubated for 72 hrs by resazurin based analysis; assay type: functional
[6] = tested on: HCT-116; assay: Induction of cell cycle arrest in human HCT-116 cells expressing wild type p53 assessed as accumulation of cells at G1 phase at 5 uM incubated for 24 hrs by PI staining based flow cytometry (reference value: 62.5 to 66.7%); assay type: functional
[7] = tested on: HCT-116; assay: Induction of cell cycle arrest in human HCT-116 cells expressing wild type p53 assessed as accumulation of cells at S phase at 5 uM incubated for 24 hrs by PI staining based flow cytometry (reference value: 0.52 to 3.83%); assay type: functional
[8] = tested on: HCT-116; assay: Induction of cell cycle arrest in human HCT-116 cells expressing wild type p53 assessed as accumulation of cells at G1 phase at 10 uM incubated for 24 hrs by PI staining based flow cytometry (reference value: 62.5 to 66.7%); assay type: functional
[9] = tested on: HCT-116; assay: Induction of cell cycle arrest in human HCT-116 cells expressing wild type p53 assessed as accumulation of cells at S phase at 10 uM incubated for 24 hrs by PI staining based flow cytometry (reference value: 0.52 to 3.83%); assay type: functional
[10] = tested on: HCT-116; assay: Induction of cell cycle arrest in human HCT-116 cells expressing wild type p53 assessed as accumulation of cells at G2 phase at 10 uM incubated for 24 hrs by PI staining based flow cytometry (reference value: 30.7 to 31.5%); assay type: functional
[11] = tested on: HCT-116; assay: Induction of cell cycle arrest in human HCT-116 cells expressing wild type p53 assessed as accumulation of cells at G1 phase at 20 uM incubated for 24 hrs by PI staining based flow cytometry (reference value: 62.5 to 66.7%); assay type: functional
[12] = tested on: HCT-116; assay: Induction of cell cycle arrest in human HCT-116 cells expressing wild type p53 assessed as accumulation of cells at S phase at 20 uM incubated for 24 hrs by PI staining based flow cytometry (reference value: 0.52 to 3.83%); assay type: functional
[13] = tested on: HCT-116; assay: Induction of cell cycle arrest in human HCT-116 cells expressing wild type p53 assessed as accumulation of cells at G2 phase at 20 uM incubated for 24 hrs by PI staining based flow cytometry (reference value: 30.7 to 31.5%); assay type: functional
[14] = tested on: HCT-116; assay: Induction of apoptosis in human HCT-116 cells expressing wild type p53 assessed as viable cells at 10 uM incubated for 48 hrs by Annexin V-FITC/PI staining based flow cytometry (reference value: 82%); assay type: functional; details: read-out: Activity
[15] = tested on: HCT-116; assay: Induction of apoptosis in human HCT-116 cells expressing wild type p53 assessed as early apoptotic cells at 10 uM incubated for 48 hrs by Annexin V-FITC/PI staining based flow cytometry (reference value: 12.5%); assay type: functional
[16] = tested on: HCT-116; assay: Induction of apoptosis in human HCT-116 cells expressing wild type p53 assessed as late apoptotic cells at 10 uM incubated for 48 hrs by Annexin V-FITC/PI staining based flow cytometry (reference value: 5.06%); assay type: functional
[17] = tested on: HCT-116; assay: Induction of apoptosis in human HCT-116 cells expressing wild type p53 assessed as necrotic cells at 10 uM incubated for 48 hrs by Annexin V-FITC/PI staining based flow cytometry (reference value: 0.44%); assay type: functional
[18] = tested on: HCT-116; assay: Induction of apoptosis in human HCT-116 cells expressing wild type p53 assessed as viable cells at 20 uM incubated for 48 hrs by Annexin V-FITC/PI staining based flow cytometry (reference value: 82.2%); assay type: functional; details: read-out: Activity
[19] = tested on: HCT-116; assay: Induction of apoptosis in human HCT-116 cells expressing wild type p53 assessed as late apoptotic cells at 20 uM incubated for 48 hrs by Annexin V-FITC/PI staining based flow cytometry (reference value: 5.37%); assay type: functional
[20] = tested on: HCT-116; assay: Induction of apoptosis in human HCT-116 cells expressing wild type p53 assessed as necrotic cells at 20 uM incubated for 48 hrs by Annexin V-FITC/PI staining based flow cytometry (reference value: 0.44%); assay type: functional
[21] = tested on: HCT-116; assay: Upregulation of p21 protein expression in human HCT-116 cells at 20 uM incubated for 24 hrs by western blot analysis; assay type: functional, cell-based
[22] = tested on: HCT-116; assay: Upregulation of BAX protein expression in human HCT-116 cells at 20 uM incubated for 24 hrs by western blot analysis; assay type: functional, cell-based
[23] = molecular target: Cellular tumor antigen p53 (Homo sapiens) (UniProt P04637); assay: Inhibition of p53 DNA binding activity in human HCT-116 cells assessed as reduction in DNA-protein complex formation at 20 uM incubated for 24 hrs by electrophoretic mobility shift analysis; assay type: cell-based
[24] = tested on: HCT-116; assay: Induction of intracellular ROS generation in human HCT-116 cells at 20 uM incubated for 24 hrs by DCFH-DA staining based fluorescence analysis; assay type: functional, cell-based
[25] = tested on: HCT-116; assay: Induction of mitochondrial membrane potential depolarization in human HCT-116 cells assessed as reduction in mitochondrial membrane potential at 20 uM incubated for 24 hrs by JC-1 staining based fluorescence analysis; assay type: functional, cell-based
[26] = tested on: HCT-116; assay: Increase in mitochondrial complex I activity in human HCT-116 cells at 20 uM incubated for 24 hrs; assay type: functional, cell-based
[27] = tested on: HCT-116; assay: Induction of ferroptosis in human HCT-116 cells assessed as increase in iron content at 20 uM incubated for 24 hrs; assay type: functional, cell-based
[28] = tested on: HCT-116; assay: Induction of ferroptosis in human HCT-116 cells assessed as reduction in GSH content at 20 uM incubated for 24 hrs; assay type: functional, cell-based
[29] = tested on: HCT-116; assay: Cytotoxicity against human HCT-116 cells assessed as reduction in cell viability at 10 uM incubated for 72 hrs in presence of apoptosis inhibitor, Z-VAD-FMK by resazurin-based analysis; assay type: functional
[30] = tested on: HCT-116; assay: Cytotoxicity against human HCT-116 cells assessed as reduction in cell viability at 10 uM incubated for 72 hrs in presence of autophagy inhibitor, 3-methyladenine by resazurin-based analysis; assay type: functional
[31] = tested on: HCT-116; assay: Potentiation of 5-FU-induced cytotoxicity in human HCT-116 cells assessed as reduction in cell viability at 10 uM incubated for 24 hrs in presence of 10 uM 5-FU by resazurin based analysis; assay type: functional
[32] = tested on: HCT-116; assay: Downregulation of MDM2 protein expression in human HCT-116 cells at 10 uM incubated for 24 hrs by western blot analysis; assay type: functional, cell-based
[33] = tested on: HCT-116; assay: Upregulation of p53 protein expression in human HCT-116 cells at 10 uM incubated for 24 hrs in presence of 10 uM 5-FU by western blot analysis; assay type: functional, cell-based

Cellular tumor antigen p53 (Homo sapiens), sequence (P04637 whole entry, looked up): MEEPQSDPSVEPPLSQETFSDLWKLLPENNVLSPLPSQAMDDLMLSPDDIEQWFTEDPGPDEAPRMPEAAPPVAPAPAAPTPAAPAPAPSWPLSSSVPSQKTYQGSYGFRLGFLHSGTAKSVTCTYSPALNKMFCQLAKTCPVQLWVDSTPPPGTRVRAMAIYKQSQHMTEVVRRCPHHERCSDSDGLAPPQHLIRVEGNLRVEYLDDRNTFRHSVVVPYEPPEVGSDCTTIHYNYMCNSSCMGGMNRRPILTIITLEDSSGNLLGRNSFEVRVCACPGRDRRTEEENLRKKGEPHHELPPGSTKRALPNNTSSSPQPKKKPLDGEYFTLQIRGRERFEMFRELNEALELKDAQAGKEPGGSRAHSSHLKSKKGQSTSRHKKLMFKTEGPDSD

SMILES | Activity [1] | Activity [2] | Activity [3] | Activity [4] | Activity [5] | Activity [6] [%] | Activity [7] [%] | Activity [8] [%] | Activity [9] [%] | Activity [10] [%] | Activity [11] [%] | Activity [12] [%] | Activity [13] [%] | viability at 10 µM [14] [%] | Activity [15] [%] | Activity [16] [%] | Activity [17] [%] | viability at 20 µM [18] [%] | Activity [19] [%] | Activity [20] [%] | other results
COc1ccc(-c2cc(=O)c3c(O)cc(O)cc3o2)cc1-c1c(O)cc(O)c2c(=O)cc(-c3ccc(O)cc3)oc12 [BILOBETIN] | Active | Dose-Dependent Effect | Tde | inactive | inactive | 64.4 | 1.81 | 59.9 | 4.88 | 33.4 | 51.2 | 7.24 | 41 | 67.9 | 28 | 3.58 | 0.46 | 52.6 | 6.94 | 0.49 | Activity [21]: inactive; Activity [22]: inactive; inhibition [23]: Active; Activity [24]: Active; Activity [25]: Active; Activity [26]: Active; Activity [27]: Active; Activity [28]: Active; Activity [29]: inactive; Activity [30]: inactive; Activity [31]: Active; inhibition [32]: Active; Activity [33]: Active
COc1cc(O)c2c(=O)cc(-c3ccc(OC)c(-c4c(O)cc(O)c5c(=O)cc(-c6ccc(O)cc6)oc45)c3)oc2c1 [GINKGETIN] | Active | Dose-Dependent Effect | Tde | inactive | inactive | 58.1 | 1.2 | 51.2 | 3.37 | 43.1 | 45.3 | 1.47 | 52.1 | 67.6 | 25.8 | 5.69 | 0.99 | 55.4 | 10.5 | 0.54 | Activity [21]: inactive; Activity [22]: inactive; inhibition [23]: Active; Activity [24]: Active; Activity [25]: Active; Activity [26]: Active; Activity [27]: Active; Activity [28]: Active; Activity [29]: inactive; Activity [30]: inactive; Activity [31]: Active; inhibition [32]: Active; Activity [33]: Active
COc1ccc(-c2cc(=O)c3c(O)cc(O)c(-c4cc(-c5cc(=O)c6c(O)cc(O)cc6o5)ccc4OC)c3o2)cc1 [ISOGINKGETIN] | Active | Dose-Dependent Effect | Tde | inactive | inactive | 58.4 | 3.37 | 52.6 | 1.38 | 44.5 | 47.3 | 3.82 | 46.6 | 70 | 26.5 | 2.58 | 0.92 | 49.1 | 9.54 | 0.79 | Activity [21]: inactive; Activity [22]: inactive; inhibition [23]: Active; Activity [24]: Active; Activity [25]: Active; Activity [26]: Active; Activity [27]: Active; Activity [28]: Active; Activity [29]: inactive; Activity [30]: inactive; Activity [31]: Active; inhibition [32]: Active; Activity [33]: Active
